According to patent US9643992B2, “Two crystal forms of ginsenoside C-K and method for preparing same” (Zhejiang Hisun Pharmaceutical Co., Ltd., priority 2012, dated 2017):

Assay: Thermostability test of crystal forms
Type: physicochemical
Details: solid sample placed at 80° C. for 1 week; change of crystal form detected
Description: 3. Thermostability Test The samples of crystal form D, crystal form H and crystal form G were each placed for 1 week at 80° C., and subsequently the changes of the crystal form were detected.

Row | SMILES | The crystal form after test
1 | CC(C)=CCC[C@](C)(O[C@@H]1O[C@H](CO)[C@@H](O)[C@H](O)[C@H]1O)[C@H]1CC[C@]2(C)[C@@H]1[C@H](O)C[C@@H]1[C@@]3(C)CC[C@H](O)C(C)(C)[C@@H]3CC[C@]12C [crystal form G, ginsenoside C-K] | changed to crystal form D
2 | CC(C)=CCC[C@](C)(O[C@@H]1O[C@H](CO)[C@@H](O)[C@H](O)[C@H]1O)[C@H]1CC[C@]2(C)[C@@H]1[C@H](O)C[C@@H]1[C@@]3(C)CC[C@H](O)C(C)(C)[C@@H]3CC[C@]12C [crystal form H, ginsenoside C-K] | no change was observed
3 | CC(C)=CCC[C@](C)(O[C@@H]1O[C@H](CO)[C@@H](O)[C@H](O)[C@H]1O)[C@H]1CC[C@]2(C)[C@@H]1[C@H](O)C[C@@H]1[C@@]3(C)CC[C@H](O)C(C)(C)[C@@H]3CC[C@]12C [crystal form D, ginsenoside C-K] | no change was observed
